Laboratory results taken from article doi:10.1101/2023.11.24.568596v1 (biorxiv, 2023).
Values belong to the molecule of their own block, whether it stands above or below them.

Experiments:
Settings in all cases: binder
[1] = target: CK1d (Homo sapiens, UniProt P48730)
[2] = target: CK1e (Homo sapiens, UniProt P49674)
[3] = target: EphA5 (Homo sapiens, UniProt P54756)
[4] = target: Erk2 (Homo sapiens, UniProt P28482)
[5] = target: FES (Homo sapiens, UniProt P07332)
[6] = target: T1, GAK (Homo sapiens, UniProt O14976)
T1 sequence (O14976 1-1311): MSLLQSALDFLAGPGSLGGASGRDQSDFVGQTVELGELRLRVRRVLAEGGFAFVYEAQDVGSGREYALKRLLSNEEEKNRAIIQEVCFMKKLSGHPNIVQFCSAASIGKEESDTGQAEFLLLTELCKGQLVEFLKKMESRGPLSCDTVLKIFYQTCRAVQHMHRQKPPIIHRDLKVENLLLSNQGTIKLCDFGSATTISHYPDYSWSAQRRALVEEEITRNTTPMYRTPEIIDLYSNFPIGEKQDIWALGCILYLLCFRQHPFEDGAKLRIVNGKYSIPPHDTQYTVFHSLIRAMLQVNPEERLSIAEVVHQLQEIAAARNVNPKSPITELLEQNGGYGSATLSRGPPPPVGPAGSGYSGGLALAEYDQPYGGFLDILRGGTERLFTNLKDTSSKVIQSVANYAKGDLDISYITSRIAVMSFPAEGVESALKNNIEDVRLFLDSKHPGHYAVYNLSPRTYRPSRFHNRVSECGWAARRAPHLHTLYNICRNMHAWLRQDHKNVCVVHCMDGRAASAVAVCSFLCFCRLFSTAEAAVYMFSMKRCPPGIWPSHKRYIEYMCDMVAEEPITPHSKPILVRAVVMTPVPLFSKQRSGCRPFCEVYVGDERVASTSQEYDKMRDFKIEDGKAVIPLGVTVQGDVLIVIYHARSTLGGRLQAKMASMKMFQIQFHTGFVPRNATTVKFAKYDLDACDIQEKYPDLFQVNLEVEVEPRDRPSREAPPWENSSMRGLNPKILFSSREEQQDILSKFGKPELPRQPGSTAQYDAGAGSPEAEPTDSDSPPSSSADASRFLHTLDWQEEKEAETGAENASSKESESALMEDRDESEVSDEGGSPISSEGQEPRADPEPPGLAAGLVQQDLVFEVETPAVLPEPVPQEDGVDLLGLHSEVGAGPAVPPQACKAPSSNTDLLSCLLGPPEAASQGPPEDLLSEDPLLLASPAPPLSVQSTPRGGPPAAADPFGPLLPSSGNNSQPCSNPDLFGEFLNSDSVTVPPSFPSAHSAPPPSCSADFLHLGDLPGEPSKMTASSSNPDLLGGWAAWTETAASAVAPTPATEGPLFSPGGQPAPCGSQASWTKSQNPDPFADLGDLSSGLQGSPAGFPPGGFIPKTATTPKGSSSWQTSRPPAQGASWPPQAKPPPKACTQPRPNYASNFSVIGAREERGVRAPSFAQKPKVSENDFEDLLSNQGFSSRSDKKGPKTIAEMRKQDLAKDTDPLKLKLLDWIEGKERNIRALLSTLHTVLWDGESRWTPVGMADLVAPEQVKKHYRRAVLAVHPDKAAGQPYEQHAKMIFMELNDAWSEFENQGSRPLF

[7] = target: T2, MST1 (Homo sapiens, UniProt Q13043)
T2 sequence (Q13043 1-487): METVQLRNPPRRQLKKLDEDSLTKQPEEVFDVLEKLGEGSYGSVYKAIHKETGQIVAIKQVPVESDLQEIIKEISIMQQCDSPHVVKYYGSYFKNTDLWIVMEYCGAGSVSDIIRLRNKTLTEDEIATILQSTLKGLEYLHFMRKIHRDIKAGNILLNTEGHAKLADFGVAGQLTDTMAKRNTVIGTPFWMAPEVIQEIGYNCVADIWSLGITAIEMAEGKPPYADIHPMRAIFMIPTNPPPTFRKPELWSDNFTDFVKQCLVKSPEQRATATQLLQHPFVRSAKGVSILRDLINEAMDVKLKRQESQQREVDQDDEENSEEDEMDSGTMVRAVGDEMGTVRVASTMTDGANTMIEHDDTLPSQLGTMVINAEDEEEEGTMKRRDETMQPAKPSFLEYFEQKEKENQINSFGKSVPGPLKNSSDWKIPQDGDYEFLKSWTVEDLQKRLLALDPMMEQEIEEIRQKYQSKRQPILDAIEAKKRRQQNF

[8] = target: T3, MST2 (Homo sapiens, UniProt Q13188)
T3 sequence (Q13188 1-491): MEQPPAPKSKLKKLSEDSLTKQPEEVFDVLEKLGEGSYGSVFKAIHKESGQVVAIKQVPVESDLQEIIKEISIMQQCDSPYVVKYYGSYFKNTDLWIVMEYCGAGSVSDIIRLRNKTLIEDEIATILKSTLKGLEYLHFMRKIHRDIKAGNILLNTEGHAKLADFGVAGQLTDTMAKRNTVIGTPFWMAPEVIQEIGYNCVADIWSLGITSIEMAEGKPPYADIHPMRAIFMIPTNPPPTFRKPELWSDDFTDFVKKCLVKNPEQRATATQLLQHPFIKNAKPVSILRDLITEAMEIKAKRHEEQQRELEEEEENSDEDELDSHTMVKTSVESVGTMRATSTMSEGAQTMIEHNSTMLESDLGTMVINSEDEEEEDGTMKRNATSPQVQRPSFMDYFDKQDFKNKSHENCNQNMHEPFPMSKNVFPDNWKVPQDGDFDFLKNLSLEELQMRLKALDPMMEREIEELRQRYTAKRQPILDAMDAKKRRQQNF

[9] = target: NEK7 (Homo sapiens, UniProt Q8TDX7)
[10] = target: PIM1 (Homo sapiens, UniProt P11309)
Chain of PIM1 (P11309 whole entry): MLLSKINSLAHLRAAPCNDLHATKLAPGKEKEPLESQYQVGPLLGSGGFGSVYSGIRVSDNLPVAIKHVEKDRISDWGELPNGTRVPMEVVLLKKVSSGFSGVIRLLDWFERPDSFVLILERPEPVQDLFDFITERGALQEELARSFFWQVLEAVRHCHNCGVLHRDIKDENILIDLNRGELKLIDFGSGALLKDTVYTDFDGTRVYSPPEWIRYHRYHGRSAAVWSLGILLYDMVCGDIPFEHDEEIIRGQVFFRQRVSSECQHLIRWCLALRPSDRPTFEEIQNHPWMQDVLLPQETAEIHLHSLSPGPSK

Chain of NEK7 (Q8TDX7 whole entry): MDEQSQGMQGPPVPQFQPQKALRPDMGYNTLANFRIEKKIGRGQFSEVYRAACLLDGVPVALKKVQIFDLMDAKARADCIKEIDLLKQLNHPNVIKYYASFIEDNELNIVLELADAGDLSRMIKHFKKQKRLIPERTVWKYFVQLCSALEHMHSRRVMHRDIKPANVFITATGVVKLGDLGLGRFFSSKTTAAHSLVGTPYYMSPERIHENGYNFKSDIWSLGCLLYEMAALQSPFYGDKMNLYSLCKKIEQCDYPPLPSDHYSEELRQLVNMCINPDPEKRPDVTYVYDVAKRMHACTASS
Chain of Erk2 (P28482 whole entry): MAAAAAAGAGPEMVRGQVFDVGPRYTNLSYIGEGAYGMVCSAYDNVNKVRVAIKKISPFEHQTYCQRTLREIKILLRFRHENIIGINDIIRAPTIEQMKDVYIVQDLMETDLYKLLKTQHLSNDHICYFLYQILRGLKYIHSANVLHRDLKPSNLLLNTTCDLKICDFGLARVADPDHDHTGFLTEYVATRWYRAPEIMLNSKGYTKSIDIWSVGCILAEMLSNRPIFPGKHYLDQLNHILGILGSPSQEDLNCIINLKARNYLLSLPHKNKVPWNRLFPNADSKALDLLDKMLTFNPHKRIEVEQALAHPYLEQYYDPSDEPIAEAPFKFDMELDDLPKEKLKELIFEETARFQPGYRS
Chain of CK1e (P49674 whole entry): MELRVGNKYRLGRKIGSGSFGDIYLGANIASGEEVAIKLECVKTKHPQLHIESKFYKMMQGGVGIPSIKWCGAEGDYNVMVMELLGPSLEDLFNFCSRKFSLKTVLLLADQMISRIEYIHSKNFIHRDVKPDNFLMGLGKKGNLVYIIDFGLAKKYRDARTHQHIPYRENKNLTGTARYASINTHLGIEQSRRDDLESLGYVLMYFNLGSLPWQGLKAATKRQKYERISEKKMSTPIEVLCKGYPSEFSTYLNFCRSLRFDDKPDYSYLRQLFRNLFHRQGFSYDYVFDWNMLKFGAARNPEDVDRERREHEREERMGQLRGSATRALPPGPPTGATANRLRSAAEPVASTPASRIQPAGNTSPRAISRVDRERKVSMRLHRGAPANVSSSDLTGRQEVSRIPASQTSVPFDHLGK
Chain of CK1d (P48730 whole entry): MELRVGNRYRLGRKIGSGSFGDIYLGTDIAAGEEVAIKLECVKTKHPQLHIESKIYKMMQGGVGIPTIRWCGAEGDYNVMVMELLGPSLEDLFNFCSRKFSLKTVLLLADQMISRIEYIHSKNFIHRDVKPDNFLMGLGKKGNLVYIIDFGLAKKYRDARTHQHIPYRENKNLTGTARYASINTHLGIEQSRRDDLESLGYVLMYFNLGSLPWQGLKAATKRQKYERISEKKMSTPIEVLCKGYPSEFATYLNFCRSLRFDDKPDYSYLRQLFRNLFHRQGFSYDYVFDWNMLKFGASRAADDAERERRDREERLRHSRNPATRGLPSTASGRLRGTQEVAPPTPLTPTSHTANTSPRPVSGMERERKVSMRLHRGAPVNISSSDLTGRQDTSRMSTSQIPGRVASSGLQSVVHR
Chain of EphA5 (P54756 whole entry): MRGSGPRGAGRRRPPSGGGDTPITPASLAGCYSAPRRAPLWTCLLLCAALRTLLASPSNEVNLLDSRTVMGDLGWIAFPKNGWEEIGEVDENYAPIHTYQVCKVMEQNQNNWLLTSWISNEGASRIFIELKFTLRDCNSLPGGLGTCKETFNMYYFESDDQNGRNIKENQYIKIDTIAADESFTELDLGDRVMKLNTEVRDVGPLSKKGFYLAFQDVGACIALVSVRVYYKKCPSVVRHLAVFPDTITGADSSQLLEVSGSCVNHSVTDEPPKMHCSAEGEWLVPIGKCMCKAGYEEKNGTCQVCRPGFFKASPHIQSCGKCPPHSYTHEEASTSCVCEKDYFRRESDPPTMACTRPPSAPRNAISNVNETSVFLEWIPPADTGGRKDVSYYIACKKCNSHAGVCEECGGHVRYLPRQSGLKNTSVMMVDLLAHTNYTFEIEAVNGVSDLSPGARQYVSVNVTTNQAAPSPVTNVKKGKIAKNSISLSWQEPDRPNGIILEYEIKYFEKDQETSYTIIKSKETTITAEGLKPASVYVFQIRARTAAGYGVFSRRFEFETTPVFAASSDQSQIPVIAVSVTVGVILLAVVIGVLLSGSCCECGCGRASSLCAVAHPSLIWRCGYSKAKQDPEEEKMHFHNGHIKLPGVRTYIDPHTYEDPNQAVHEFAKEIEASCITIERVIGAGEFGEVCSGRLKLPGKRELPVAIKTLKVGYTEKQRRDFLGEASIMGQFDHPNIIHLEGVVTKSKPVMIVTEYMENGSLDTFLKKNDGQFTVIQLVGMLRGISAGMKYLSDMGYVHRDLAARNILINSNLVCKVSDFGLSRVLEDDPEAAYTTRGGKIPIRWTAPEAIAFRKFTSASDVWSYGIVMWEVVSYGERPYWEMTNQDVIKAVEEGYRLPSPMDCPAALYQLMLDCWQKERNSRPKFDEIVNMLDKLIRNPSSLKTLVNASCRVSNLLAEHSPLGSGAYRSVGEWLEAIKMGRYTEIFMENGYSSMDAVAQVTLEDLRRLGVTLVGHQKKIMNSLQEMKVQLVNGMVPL
Chain of FES (P07332 whole entry): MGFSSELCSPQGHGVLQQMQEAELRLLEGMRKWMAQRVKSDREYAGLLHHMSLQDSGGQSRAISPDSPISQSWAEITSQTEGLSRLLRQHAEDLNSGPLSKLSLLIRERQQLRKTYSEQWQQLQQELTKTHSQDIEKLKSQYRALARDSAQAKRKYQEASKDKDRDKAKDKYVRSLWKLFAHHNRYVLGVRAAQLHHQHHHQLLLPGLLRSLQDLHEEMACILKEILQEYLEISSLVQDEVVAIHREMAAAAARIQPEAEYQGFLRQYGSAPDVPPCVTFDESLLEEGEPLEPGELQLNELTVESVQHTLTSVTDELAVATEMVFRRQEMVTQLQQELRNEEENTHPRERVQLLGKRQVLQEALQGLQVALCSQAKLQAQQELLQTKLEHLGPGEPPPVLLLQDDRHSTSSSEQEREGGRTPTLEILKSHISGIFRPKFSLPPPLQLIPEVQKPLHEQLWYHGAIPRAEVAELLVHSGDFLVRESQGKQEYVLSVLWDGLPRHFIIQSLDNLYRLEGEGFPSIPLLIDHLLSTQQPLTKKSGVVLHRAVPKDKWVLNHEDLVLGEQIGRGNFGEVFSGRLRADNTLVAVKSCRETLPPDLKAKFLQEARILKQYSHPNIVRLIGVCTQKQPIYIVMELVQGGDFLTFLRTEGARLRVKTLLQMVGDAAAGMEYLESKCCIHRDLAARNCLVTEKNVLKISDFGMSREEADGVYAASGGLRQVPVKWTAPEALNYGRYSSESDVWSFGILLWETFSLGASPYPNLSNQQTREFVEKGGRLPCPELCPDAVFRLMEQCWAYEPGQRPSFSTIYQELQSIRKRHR

ΔTm 28 [1]: 1.4 °C
ΔTm 28 [2]: 4.9 °C
ΔTm 28 [3]: 4.5 °C
ΔTm 28 [4]: 0.7 °C
ΔTm 28 [5]: 8.5 °C
ΔTm 28 [6]: 9.4 °C
ΔTm 28 [7]: -1.6 °C
ΔTm 28 [8]: 10.1 °C
ΔTm 28 [9]: -0.7 °C
ΔTm 28 [10]: 0.5 °C
SMILES: Cc1cccc(-c2ccc(-c3cc4cnc(Nc5cc(C(F)(F)F)ccc5C)nc4n(CCCCN)c3=O)c(Cl)c2)n1 [compound 28, 8-(4-Aminobutyl)-6-(2-chloro-4-(6-methylpyridin-2-yl)phenyl)-2-((2-methyl-5-(trifluoromethyl)phenyl)amino)pyrido[2,3-d]pyrimidin-7(8H)-one]

ΔTm 31 [1]: 2.8 °C
ΔTm 31 [2]: 7.5 °C
ΔTm 31 [3]: 6.2 °C
ΔTm 31 [4]: 1.3 °C
ΔTm 31 [5]: 8.7 °C
ΔTm 31 [6]: 13.3 °C
ΔTm 31 [7]: 2.0 °C
ΔTm 31 [8]: 14.3 °C
ΔTm 31 [9]: -1.6 °C
ΔTm 31 [10]: 3.7 °C
SMILES: Cc1cccc(-c2ccc(-c3cc4cnc(Nc5ccc(O)cc5)nc4n(CCCCN)c3=O)c(Cl)c2)n1 [compound 31, 8-(4-Aminobutyl)-6-(2-chloro-4-(6-methylpyridin-2-yl)phenyl)-2-((4-hydroxyphenyl)amino) pyrido[2,3-d]pyrimidin-7(8H)-one]

ΔTm 32 [1]: 2.3 °C
ΔTm 32 [2]: 7.7 °C
ΔTm 32 [3]: 6.6 °C
ΔTm 32 [4]: 1.9 °C
ΔTm 32 [5]: 8.8 °C
ΔTm 32 [6]: 13.3 °C
ΔTm 32 [7]: 1.6 °C
ΔTm 32 [8]: 14.7 °C
ΔTm 32 [9]: -0.6 °C
ΔTm 32 [10]: 1.2 °C
SMILES: Cc1cccc(-c2ccc(-c3cc4cnc(Nc5ccc(C)c(O)c5)nc4n(CCCCN)c3=O)c(Cl)c2)n1 [compound 32, 8-(4-Aminobutyl)-6-(2-chloro-4-(6-methylpyridin-2-yl)phenyl)-2-((3-hydroxy-4-methylphenyl)amino)pyrido[2,3-d]pyrimidin-7(8H)-one]

Further lines, the molecule ahead of its results:

SMILES: Cc1cccc(-c2ccc(-c3cc4cnc(NCCCN5CCCC5=O)nc4n(CCCCN)c3=O)c(Cl)c2)n1 [compound 27, MR30]
ΔTm MR30 (27) [1]: 1.6 °C
ΔTm MR30 (27) [2]: 6.4 °C
ΔTm MR30 (27) [3]: 2.8 °C
ΔTm MR30 (27) [4]: 0.4 °C
ΔTm MR30 (27) [5]: 5.0 °C
ΔTm MR30 (27) [6]: 4.3 °C
ΔTm MR30 (27) [7]: -1.0 °C
ΔTm MR30 (27) [8]: 5.9 °C
ΔTm MR30 (27) [9]: -0.4 °C
ΔTm MR30 (27) [10]: -0.5 °C

SMILES: Cc1cccc(-c2ccc(-c3cc4cnc(Nc5ccc(CCCO)cc5)nc4n(CCCCN)c3=O)c(Cl)c2)n1 [compound 30, 8-(4-Aminobutyl)-6-(2-chloro-4-(6-methylpyridin-2-yl)phenyl)-2-((4-(3-hydroxypropyl)phenyl)amino)pyrido[2,3-d]pyrimidin-7(8H)-one]
ΔTm 30 [1]: 2.8 °C
ΔTm 30 [2]: 8.2 °C
ΔTm 30 [3]: 6.6 °C
ΔTm 30 [4]: 3.5 °C
ΔTm 30 [5]: 9.1 °C
ΔTm 30 [6]: 13.2 °C
ΔTm 30 [7]: 1.7 °C
ΔTm 30 [8]: 15.0 °C
ΔTm 30 [9]: -0.9 °C
ΔTm 30 [10]: -0.4 °C

SMILES: Cc1cccc(-c2ccc(-c3cc4cnc(NCCCN5CCNCC5)nc4n(CCCCN)c3=O)c(Cl)c2)n1 [compound 29, 8-(4-Aminobutyl)-6-(2-chloro-4-(6-methylpyridin-2-yl)phenyl)-2-((3-(piperazin-1-yl)propyl)amino)pyrido[2,3-d]pyrimidin-7(8H)-one]
ΔTm 29 [1]: 1.3 °C
ΔTm 29 [2]: 5.8 °C
ΔTm 29 [3]: 2.7 °C
ΔTm 29 [4]: -0.4 °C
ΔTm 29 [5]: 6.0 °C
ΔTm 29 [6]: 4.2 °C
ΔTm 29 [7]: -0.5 °C
ΔTm 29 [8]: 9.1 °C
ΔTm 29 [9]: -0.2 °C
ΔTm 29 [10]: 0.6 °C
